According to patent publication US20110230493A1, “1-OXA-8-Azaspiro [4,5] Decabe-8-Carboxamide Compounds as FAAH Inhibitors” (Pfizer Inc., priority 2008, published 2011):

Legend:
human FAAH = biological target: T1, human FAAH (Homo sapiens, UniProt O00519); assay: FAAH assay, human FAAH enzyme inactivation (kinact/Ki); format: biochemical; settings: oleamide 50 μM, 30° C.; for kinact/KI: pH 7.4, in vitro, read-out: hFAAH kinact/Ki; for hFAAH kinact/Ki: in vitro, pH 7.4
T1 construct: made in house; host or cells: E. coli
T1 sequence (O00519 1-579): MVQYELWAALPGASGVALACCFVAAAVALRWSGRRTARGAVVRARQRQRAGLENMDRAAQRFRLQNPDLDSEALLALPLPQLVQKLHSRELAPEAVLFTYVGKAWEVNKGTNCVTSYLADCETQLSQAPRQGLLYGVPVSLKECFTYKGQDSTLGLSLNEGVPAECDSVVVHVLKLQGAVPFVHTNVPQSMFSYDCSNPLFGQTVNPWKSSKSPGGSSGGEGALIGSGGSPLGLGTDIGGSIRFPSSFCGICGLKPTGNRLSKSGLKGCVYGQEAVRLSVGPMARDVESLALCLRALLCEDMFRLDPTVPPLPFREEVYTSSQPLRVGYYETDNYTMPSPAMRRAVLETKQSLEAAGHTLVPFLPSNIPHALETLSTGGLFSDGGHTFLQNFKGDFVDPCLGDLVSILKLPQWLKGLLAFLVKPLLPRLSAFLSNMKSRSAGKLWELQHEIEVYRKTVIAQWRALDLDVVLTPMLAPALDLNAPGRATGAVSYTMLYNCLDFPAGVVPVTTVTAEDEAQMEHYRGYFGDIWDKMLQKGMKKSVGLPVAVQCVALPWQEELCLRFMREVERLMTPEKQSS
Procedure: (§1) The FAAH assay was carried out in 384-well clear polystyrene plates (Evergreen Scientific) in a total volume of 50 μl per well in a manner similar to that described by Mileni et al., Proc. Nat. Acad. Sci. 2008, 105, 12820-12824. All percents are by volume. Serial dilutions of compound were initially prepared in 100% DMSO, and then diluted two-fold into HPLC-grade H2O to give 50% DMSO. To each well, was placed the reaction mixture (40 μl) containing 1-4 nM FAAH, 50 mM NaPi, pH 7.4, 3 mM α-ketoglutarate, 0.15 mM NADH, 7.5 U/ml glutamate dehydrogenase, 2 mM ADP, 1 mM EDTA, and 0.1% Triton X-100 (The concentration shown for each component is the final concentration in the assay). To this mixture, was added 5 μl of a compound of Examples 1 to 101 at various concentrations in 50% DMSO (or 5 μl 50% DMSO for controls). This was immediately followed by the addition of 5 μl oleamide (500 μM) dissolved in 75% EtOH/25% DMSO and the reaction mixture was mixed for 1.5 min. The final concentrations of DMSO and EtOH in the assay were each 7.5%. The reactions were incubated at 30° C. and the absorbance at 340 nm was collected over a period of 90 min with readings taken in 30-second intervals using SpectraMax Plus^384 Microplate Spectrophotometer (Molecular Devices, Sunnyvale, Calif.). The human FAAH and rat FAAH used in the assay was prepared as described in the patent application WO 2006/067613 using wild-type E. coli cells transformed in St. Louis, Mo., U.S.A. The purity of the enzyme was greater than 98% based on an analysis by SDS-polyacrylamide gel electrophoresis followed by Coomassie Blue staining.
(§2) Reaction progress curves were corrected for the non-enzymatic oxidation of NADH by subtraction of absorbancies at each time point obtained from control reactions containing no FAAH enzyme. The loss of enzyme activity as a function of time is well-described by the following mathematical equation (1) for a mono-exponential decay: […]
(§3) where At represents the absorbance at time t, A0 represents the absorbance at time zero, and C represents a constant. Observed rates of enzyme inactivation (kobs) were determined from the non-linear reaction progress curves by fitting the corrected absorbancies to an equation for a mono-exponential decay using the third-party Microsoft Excel plug-in, XLfit (IDBS Limited). Secondary plots of kobs vs. inhibitor concentration were prepared from kobs values obtained from progress curves. Second-order rates for enzyme inactivation, expressed as kinact/Ki (M^−1 s^−1), were calculated from the slopes from linear regression analysis of the secondary plot of kobs vs. inhibitor concentration as defined in following equation (2), where [I]<<Ki:
(§4) The concentration of substrate in the assay was equal to the Km for oleamide of 50 μM. Therefore, reported kinact/Ki values are obtained by multiplying resulting slopes by a factor of two (i.e. slope=kinact/(Ki*2)).
(§5) Table 1, below, lists human FAAH (hFAAH) and rat FAAH (rFAAH) enzyme inhibition values for Examples 1-101 as a ratio of kinact/Ki (M^−1 s^−1).

rat FAAH = biological target: T2, rat FAAH (Rattus norvegicus, UniProt P97612); assay: FAAH assay, rat FAAH enzyme inactivation (kinact/Ki); format: biochemical; settings: oleamide 50 μM, 30° C.; for kinact/KI: pH 7.4, in vitro, read-out: rFAAH kinact/Ki; for rFAAH kinact/Ki: in vitro, pH 7.4
T2 construct: made in house; host or cells: E. coli
T2 sequence (P97612 1-579): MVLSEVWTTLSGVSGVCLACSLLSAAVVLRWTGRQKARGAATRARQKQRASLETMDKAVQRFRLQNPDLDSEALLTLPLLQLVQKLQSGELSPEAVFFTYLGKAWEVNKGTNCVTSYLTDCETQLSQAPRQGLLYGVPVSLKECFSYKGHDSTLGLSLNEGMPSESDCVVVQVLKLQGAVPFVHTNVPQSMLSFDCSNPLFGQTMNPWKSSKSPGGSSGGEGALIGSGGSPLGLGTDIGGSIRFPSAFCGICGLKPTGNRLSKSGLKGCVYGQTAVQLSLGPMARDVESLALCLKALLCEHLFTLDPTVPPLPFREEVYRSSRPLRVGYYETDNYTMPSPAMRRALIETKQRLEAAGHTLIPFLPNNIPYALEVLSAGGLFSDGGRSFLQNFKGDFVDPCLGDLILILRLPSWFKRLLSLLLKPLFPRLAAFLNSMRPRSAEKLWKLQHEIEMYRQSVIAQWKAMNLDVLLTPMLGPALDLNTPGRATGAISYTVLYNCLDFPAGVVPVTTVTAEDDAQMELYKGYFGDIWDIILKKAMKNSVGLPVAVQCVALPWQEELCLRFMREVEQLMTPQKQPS
Procedure: as §1, §2, §3, §4, §5

kinact/KI (human FAAH) [M⁻¹ s⁻¹] | kinact/KI (rat FAAH) [M⁻¹ s⁻¹] | hFAAH kinact/Ki (human FAAH) [M⁻¹ s⁻¹] | rFAAH kinact/Ki (rat FAAH) [M⁻¹ s⁻¹] | Structure (SMILES)
6030 | 3630 | – | – | Cc1noc(NC(=O)N2CCC3(CC2)CC(c2ccc(OCc4cccc(F)c4)cc2)CO3)c1C (racemic) [Example 22, (3RS)-N-(3,4-dimethylisoxazol-5-yl)-3-{4-[(3-fluorobenzyl)oxy]phenyl}-1-oxa-8-azaspiro[4.5]decane-8-carboxamide]
3970 | 4390 | – | – | Cc1noc(NC(=O)N2CCC3(CC2)CC(c2ccc(OCc4ccccc4)c(Cl)c2)CO3)c1C (racemic) [Example 20, (3RS)-3-[4-(benzyloxy)-3-chlorophenyl]-N-(3,4-dimethylisoxazol-5-yl)-1-oxa-8-azaspiro[4.5]decane-8-carboxamide]
2610 | 1020 | – | – | Cc1noc(NC(=O)N2CCC3(CC2)CC(c2noc(-c4ccc(OC(F)(F)F)cc4)n2)CO3)c1C (racemic) [Example 71, (3RS)—N-(3,4-dimethylisoxazol-5-yl)-3-{5-[4-(trifluoromethoxy)phenyl]-1,2,4-oxadiazol-3-yl}-1-oxa-8-azaspiro[4.5]decane-8-carboxamide]
2660 | 3620 | – | – | O=C(Nc1cccnn1)N1CCC2(CC1)CC(c1cccc(Oc3ccc(Br)cn3)c1)CO2 (racemic) [Example 5, (3RS)-3-{3-[(5-bromopyridin-2-yl)oxy]phenyl}-N-pyridazin-3-yl-1-oxa-8-azaspiro[4.5]decane-8-carboxamide]
3100 | 3550 | – | – | Cc1noc(NC(=O)N2CCC3(CC2)CC(c2ccc(OCc4cccc(Cl)c4)c(Cl)c2)CO3)c1C (racemic) [Example 21, (3RS)-3-{3-chloro-4-[(3-chlorobenzyl)oxy]phenyl}-N-(3,4-dimethylisoxazol-5-yl)-1-oxa-8-azaspiro[4.5]decane-8-carboxamide]
– | – | 2470 | 3740 | Cc1noc(NC(=O)N2CCC3(CC2)CC(c2cc(F)cc(Cl)c2)CO3)c1C (single isomer, unassigned) [Example 40, 3-(3-chloro-5-fluorophenyl)-N-(3,4-dimethylisoxazol-5-yl)-1-oxa-8-azaspiro[4.5]decane-8-carboxamide]
– | – | 1330 | 2680 | Cc1noc(NC(=O)N2CCC3(CC2)CC(c2cccc(C(F)(F)F)c2)CO3)c1C (single isomer, unassigned) [Example 67, N-(3,4-dimethylisoxazol-5-yl)-3-[3-(trifluoromethyl)phenyl]-1-oxa-8-azaspiro[4.5]decane-8-carboxamide]
1490 | 588 | – | – | Cc1noc(NC(=O)N2CCC3(CC2)C[C@H](c2cccc(-c4ccc(OC(F)(F)F)cc4)c2)CO3)c1C [Example 64, (3R)—N-(3,4-dimethylisoxazol-5-yl)-3-[4′-(trifluoromethoxy)biphenyl-3-yl]-1-oxa-8-azaspiro[4.5]decane-8-carboxamide]
1880 | 1140 | – | – | Cc1noc(NC(=O)N2CCC3(CC2)CC(c2cccc(-c4ccc(OC(F)(F)F)cc4)c2)CO3)c1C (racemic) [Example 56, (3RS)-N-(3,4-dimethylisoxazol-5-yl)-3-[4′-(trifluoromethoxy)biphenyl-3-yl]-1-oxa-8-azaspiro[4.5]decane-8-carboxamide]
2820 | 1630 | – | – | Cc1noc(NC(=O)N2CCC3(CC2)C[C@H](c2cccc(-c4ccc(C(F)(F)F)cn4)c2)CO3)c1C [Example 98, (3R)—N-(3,4-dimethylisoxazol-5-yl)-3-{3-[5-(trifluoromethyl)pyridin-2-yl]phenyl}-1-oxa-8-azaspiro[4.5]decane-8-carboxamide]
5240 | 3120 | – | – | Cn1nnnc1NC(=O)N1CCC2(CC1)CC(c1cccc(C(F)(F)F)c1)CO2 (racemic) [Example 92]
2430 | 4360 | – | – | Cc1noc(NC(=O)N2CCC3(CC2)CC(c2ccc(Cl)c(Cl)c2)CO3)c1C (racemic) [Example 15, (3RS)-3-(3,4-dichlorophenyl)-N-(3,4-dimethylisoxazol-5-yl)-1-oxa-8-azaspiro[4.5]decane-8-carboxamide]
6960 | 6690 | – | – | Cc1noc(NC(=O)N2CCC3(CC2)CC(c2ccc(OCc4ccc(F)cc4)cc2)CO3)c1C (racemic) [Example 17, (3RS)-N-(3,4-dimethylisoxazol-5-yl)-3-{4-[(4-fluorobenzyl)oxy]phenyl}-1-oxa-8-azaspiro[4.5]decane-8-carboxamide]
1580 | 3950 | – | – | Cc1noc(NC(=O)N2CCC3(CC2)CC(c2ccc(F)c(Cl)c2)CO3)c1C (racemic) [Example 28, (3RS)-3-(3-chloro-4-fluorophenyl)-N-(3,4-dimethylisoxazol-5-yl)-1-oxa-8-azaspiro[4.5]decane-8-carboxamide]
2140 | 2920 | – | – | Cc1noc(NC(=O)N2CCC3(CC2)CC(c2cccc(C(F)(F)F)c2)CO3)c1C (single isomer, unassigned) [Example 66, N-(3,4-dimethylisoxazol-5-yl)-3-[3-(trifluoromethyl)phenyl]-1-oxa-8-azaspiro[4.5]decane-8-carboxamide]
2040 | 2670 | – | – | Cc1noc(NC(=O)N2CCC3(CC2)CC(c2cccc(Cl)c2)CO3)c1C (racemic) [Example 14, (3RS)-3-(3-chlorophenyl)-N-(3,4-dimethylisoxazol-5-yl)-1-oxa-8-azaspiro[4.5]decane-8-carboxamide]
1100 | 2630 | – | – | Cc1noc(NC(=O)N2CCC3(CC2)CC(c2cccc(C(F)(F)F)c2)CO3)c1C (racemic) [Example 65, (3RS)—N-(3,4-dimethylisoxazol-5-yl)-3-[3-(trifluoromethyl)phenyl]-1-oxa-8-azaspiro[4.5]decane-8-carboxamide]
2070 | 1160 | – | – | Cc1noc(NC(=O)N2CCC3(CC2)CC(c2cccc(-c4ccc(Cl)cc4)c2)CO3)c1C (racemic) [Example 55, (3RS)-3-(4′-chlorobiphenyl-3-yl)-N-(3,4-dimethylisoxazol-5-yl)-1-oxa-8-azaspiro[4.5]decane-8-carboxamide]
